Assay results: publication PMC5931996 (Scientific Reports, 2018)

Key:
[1] = test system: 5-HTP-induced head twitches in rats; assay: 5-HTP-induced head twitch; format: in vivo, SD rats; conditions: mean ± S.E.M.
Experimental: SD rats (200–250 g, 8 animals/ group) were housed in the test room for at least 1 h before the experiment. […] Then, all animals were intraperitoneally injected with 0.9% saline or 5-HTP (320 mg/kg) 40 min before the test. The number of head twitches was recorded during a period of 40–70 min after intraperitoneal injection.

MK-801-treated rats [2] = assay: Morris water maze test, subchronic administration, MK-801-treated rats; format: in vivo, SD rats
Experimental: The MWM test was started after the last injection. Each rat was trained in 4 trials per day for 5 consecutive days. The escape latency to find the submerged escape platform in the water maze was recorded with the TopScan monitoring system. Each training session lasted for a maximum of 60 s. If the escape latency exceeded 60 s, it was recorded as 60 s and the rat was manually guided to the platform. On day 6, the platform was removed and each rat was allowed to swim freely for 60 s.

[3] = test system: MK-801-induced locomotor hyperactivity in rats; assay: Inhibition of MK-801-induced hyperactivity; format: in vivo, SD rats; conditions: mean ± S.E.M.
Experimental: […]. […] Animals were returned to the activity chambers after the intraperitoneal injection, and locomotor activity as quantitated as the distance travelled (mm) was recorded for 10 to 20 minutes using the TopScan monitoring system. At the end of each trial, the faecal boli were cleaned to avoid the potential influence of intramaze cues (odour trails, etc.) on the rats[36].

MK-801-treated rats [4] = assay: Morris water maze test, acute administration, MK-801-treated rats; format: in vivo, SD rats; conditions: mean ± S.E.M.
Experimental: SD rats (200–250 g, 8 animals/ group) were trained continuously until all rats found the platform within 30 sec, and the training time depended on the training results. […]. Then, all animals were intraperitoneal injections of 0.9% saline or MK-801 (0.2 mg/kg, i.p.) 30 minutes before the test. The test was started and the escape latency of rats was measured during the test in which platform was not withdrawn. A trial was deemed complete as soon as the rat had located platform or when 60 s had elapsed, whichever occurred first. The swimming activity of each rat was monitored by TopScan monitoring system. At the end of each trial, the maze was cleaned. The maze was rotated by clockwise after each training day to avoid potential intramaze cues (odour trails, etc.)[38].

[5] = test system: MK-801-induced NOR deficit in rats; assay: Novel object recognition (NOR) test; conditions: MK-801 0.3 mg/kg i.p. day 15–28 with vehicle (model group)
Experimental: Rats were testing after the last administration. Following a 10-min habituation session on the day of testing, each rat was placed in the NOR chamber (grey PVC boxes 60*60 cm wide and 45 cm deep) and exposed to two identical objects (Left and Right) for a period of 10 min (Acquisition Trial). The objects used in this experiment were rectangular plastic cases. […] Rats were then returned to their home cage for an inter-trial interval (ITI) of 1.5 h and the entire box was cleaned. Then one was replaced with an identical familiar copy and one was replaced with a novel object. Following the ITI, rats were returned to the apparatus and allowed to explore the familiar and novel objects in the test box for a 10-min retention trial (Retention Trial). All experiments were monitored by TopScan monitoring system[39].

human α1A receptor = target: T1, human α1A receptor (Homo sapiens, UniProt P35348); assay: Radioligand binding assay, α1A receptor; conditions: radioligand displacement, transfected HEK-293 cells; read-out: Receptor binding affinity (Ki), α1A
T1 construct: expressed in transfected cells; host or cells: HEK-293
T1 sequence (P35348 1-466): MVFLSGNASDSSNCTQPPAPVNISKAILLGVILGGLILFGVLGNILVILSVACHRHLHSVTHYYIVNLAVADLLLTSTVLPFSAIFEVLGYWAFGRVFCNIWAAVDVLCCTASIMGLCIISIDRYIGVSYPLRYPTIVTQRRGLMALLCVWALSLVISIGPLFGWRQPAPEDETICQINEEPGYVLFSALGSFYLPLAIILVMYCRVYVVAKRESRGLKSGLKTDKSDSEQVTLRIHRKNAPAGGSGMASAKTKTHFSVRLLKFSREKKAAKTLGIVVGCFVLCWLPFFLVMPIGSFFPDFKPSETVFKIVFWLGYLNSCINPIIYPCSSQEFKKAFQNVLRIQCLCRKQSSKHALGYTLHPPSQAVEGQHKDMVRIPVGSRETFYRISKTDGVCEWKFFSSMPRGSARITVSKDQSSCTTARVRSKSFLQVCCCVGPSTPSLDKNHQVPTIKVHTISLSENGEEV
Experimental: (§1) The affinity of compounds for the human dopamine D2, D3, D4, 5-HT2A, 5-HT2B, 5-HT2C, 5-HT6, 5-HT7, H1, α1A, and α1B receptors in transfected HEK-293 cells was determined using a radioligand binding assay. Cell membrane homogenates were incubated in the absence or presence of the test compound in a buffer. Nonspecific binding was measured in the presence of the standard reference compound. Following incubation, samples were rapidly filtered under a vacuum through glass fibre filters (GF/B, Packard) presoaked with 0.3% PEI and rinsed several times with ice-cold 50 mM Tris-HCl using a 96-sample cell harvester (Unifilter, Packard). Filters were dried and then radioactivity was counted in a scintillation counter (Topcount, Packard) using a scintillation cocktail (Microscint 0, Packard). The results are expressed as percent inhibition of the specific binding of the radioligand in the control. The standard reference compound was tested in each experiment at several concentrations to obtain a competition curve from which its Ki was calculated.

human 5-HT2C receptor = target: T2, human 5-HT2C receptor (Homo sapiens, UniProt P28335); assay: Radioligand binding assay, 5-HT2C receptor; conditions: radioligand displacement, transfected HEK-293 cells; read-out: Receptor binding affinity (Ki), 5-HT2C
T2 construct: expressed in transfected cells; host or cells: HEK-293
T2 sequence (P28335 33-458): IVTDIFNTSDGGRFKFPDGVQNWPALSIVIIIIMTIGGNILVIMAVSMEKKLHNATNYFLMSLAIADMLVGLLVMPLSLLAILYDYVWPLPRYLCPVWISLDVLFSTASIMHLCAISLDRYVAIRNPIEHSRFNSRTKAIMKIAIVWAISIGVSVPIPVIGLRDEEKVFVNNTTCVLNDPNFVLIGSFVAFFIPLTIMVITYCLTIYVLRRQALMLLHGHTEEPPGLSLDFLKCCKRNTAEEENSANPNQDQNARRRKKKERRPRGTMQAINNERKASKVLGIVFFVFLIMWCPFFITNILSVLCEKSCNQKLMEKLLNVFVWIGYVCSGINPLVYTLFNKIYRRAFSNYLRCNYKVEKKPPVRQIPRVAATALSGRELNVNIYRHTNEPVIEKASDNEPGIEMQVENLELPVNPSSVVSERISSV
Experimental: as §1

human H1 receptor = target: T3, human H1 receptor (Homo sapiens, UniProt P35367); assay: Radioligand binding assay, H1 receptor; conditions: radioligand displacement, transfected HEK-293 cells; read-out: Receptor binding affinity (Ki), H1
T3 construct: expressed in transfected cells; host or cells: HEK-293
T3 sequence (P35367 whole entry): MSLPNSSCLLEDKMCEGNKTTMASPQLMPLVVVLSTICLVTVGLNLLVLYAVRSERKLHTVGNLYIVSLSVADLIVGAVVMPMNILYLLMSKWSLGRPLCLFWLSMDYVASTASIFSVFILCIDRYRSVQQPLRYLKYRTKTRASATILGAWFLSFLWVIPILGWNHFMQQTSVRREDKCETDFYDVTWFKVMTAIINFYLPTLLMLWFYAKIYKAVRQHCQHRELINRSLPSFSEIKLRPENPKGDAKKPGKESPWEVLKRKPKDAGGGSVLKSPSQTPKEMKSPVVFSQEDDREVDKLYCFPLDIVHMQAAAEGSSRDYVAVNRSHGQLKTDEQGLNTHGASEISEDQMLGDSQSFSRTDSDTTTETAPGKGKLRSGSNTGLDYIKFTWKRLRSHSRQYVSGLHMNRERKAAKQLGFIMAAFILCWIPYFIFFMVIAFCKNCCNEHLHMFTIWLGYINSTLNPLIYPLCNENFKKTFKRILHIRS
Experimental: as §1

human 5-HT6 receptor = target: T4, human 5-HT6 receptor (Homo sapiens, UniProt P50406); assay: Radioligand binding assay, 5-HT6 receptor; conditions: radioligand displacement, transfected HEK-293 cells; read-out: Receptor binding affinity (Ki), 5-HT6
T4 construct: expressed in transfected cells; host or cells: HEK-293
T4 sequence (P50406 whole entry): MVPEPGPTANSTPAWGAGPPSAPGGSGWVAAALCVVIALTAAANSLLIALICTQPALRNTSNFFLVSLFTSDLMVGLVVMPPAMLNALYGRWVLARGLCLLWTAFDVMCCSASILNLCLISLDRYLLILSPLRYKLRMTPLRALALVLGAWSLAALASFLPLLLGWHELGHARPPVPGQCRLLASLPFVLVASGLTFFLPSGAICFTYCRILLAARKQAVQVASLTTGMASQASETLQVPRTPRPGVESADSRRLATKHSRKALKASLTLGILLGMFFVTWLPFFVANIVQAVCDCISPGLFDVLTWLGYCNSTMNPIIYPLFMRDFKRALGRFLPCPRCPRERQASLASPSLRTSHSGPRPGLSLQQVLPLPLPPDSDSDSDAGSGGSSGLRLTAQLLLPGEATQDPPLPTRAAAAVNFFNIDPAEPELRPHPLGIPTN
Experimental: as §1

human α1B receptor = target: T5, human α1B receptor (Homo sapiens, UniProt P35368); assay: Radioligand binding assay, α1B receptor; conditions: radioligand displacement, transfected HEK-293 cells; read-out: Receptor binding affinity (Ki), α1B
T5 construct: expressed in transfected cells; host or cells: HEK-293
T5 sequence (P35368 1-520): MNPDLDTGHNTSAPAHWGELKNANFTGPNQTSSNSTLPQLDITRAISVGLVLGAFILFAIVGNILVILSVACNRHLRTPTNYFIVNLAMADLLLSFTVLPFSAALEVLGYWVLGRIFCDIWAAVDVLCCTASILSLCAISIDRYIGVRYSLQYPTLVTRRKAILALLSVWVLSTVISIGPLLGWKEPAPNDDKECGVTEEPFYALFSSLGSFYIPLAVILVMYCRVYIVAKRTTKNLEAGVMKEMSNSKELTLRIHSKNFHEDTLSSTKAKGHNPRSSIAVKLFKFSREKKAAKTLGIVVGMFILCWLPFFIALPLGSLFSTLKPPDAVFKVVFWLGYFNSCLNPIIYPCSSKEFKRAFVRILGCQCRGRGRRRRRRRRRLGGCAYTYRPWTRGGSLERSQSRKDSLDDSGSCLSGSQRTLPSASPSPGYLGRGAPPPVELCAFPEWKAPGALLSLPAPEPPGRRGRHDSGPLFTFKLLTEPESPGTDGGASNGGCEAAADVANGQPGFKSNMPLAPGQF
Experimental: as §1

mice = assay: Forelimb catalepsy in mice; conditions: NIH, mouse, in vivo, po, 1 h
Experimental: Then each mouse was positioned such that both front paws rested on a […] diameter steel rod (covered with non-slippery tape) placed 3.5 cm above the surface of the bench. The period of time that each mouse maintained this position was recorded. The experiment was repeated at least 10 times. Finally, the longest period of catalepsy for each mouse was recorded.

human 5-HT2A receptor = human 5-HT2A receptor (Homo sapiens, UniProt P28223); assay: Radioligand binding assay, 5-HT2A receptor; conditions: radioligand displacement, transfected HEK-293 cells; read-out: Receptor binding affinity (Ki), 5-HT2A
Chain of human 5-HT2A receptor (P28223 whole entry): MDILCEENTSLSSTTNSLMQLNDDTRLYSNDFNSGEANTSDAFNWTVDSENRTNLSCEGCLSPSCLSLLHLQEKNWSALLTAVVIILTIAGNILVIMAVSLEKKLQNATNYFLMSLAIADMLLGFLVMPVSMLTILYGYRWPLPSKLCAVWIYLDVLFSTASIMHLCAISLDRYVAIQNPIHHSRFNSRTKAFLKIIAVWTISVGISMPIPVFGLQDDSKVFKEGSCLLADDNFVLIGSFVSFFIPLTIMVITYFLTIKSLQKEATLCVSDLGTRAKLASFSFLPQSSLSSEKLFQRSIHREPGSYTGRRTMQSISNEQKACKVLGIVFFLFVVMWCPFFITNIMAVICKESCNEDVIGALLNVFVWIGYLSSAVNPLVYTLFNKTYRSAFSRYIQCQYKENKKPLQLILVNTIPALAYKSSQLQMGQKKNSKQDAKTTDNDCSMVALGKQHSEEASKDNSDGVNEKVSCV

human 5-HT7 receptor = target: T6, human 5-HT7 receptor (Homo sapiens, UniProt P34969); assay: Radioligand binding assay, 5-HT7 receptor; conditions: radioligand displacement, transfected HEK-293 cells; read-out: Receptor binding affinity (Ki), 5-HT7
T6 construct: expressed in transfected cells; host or cells: HEK-293
T6 sequence (P34969 whole entry): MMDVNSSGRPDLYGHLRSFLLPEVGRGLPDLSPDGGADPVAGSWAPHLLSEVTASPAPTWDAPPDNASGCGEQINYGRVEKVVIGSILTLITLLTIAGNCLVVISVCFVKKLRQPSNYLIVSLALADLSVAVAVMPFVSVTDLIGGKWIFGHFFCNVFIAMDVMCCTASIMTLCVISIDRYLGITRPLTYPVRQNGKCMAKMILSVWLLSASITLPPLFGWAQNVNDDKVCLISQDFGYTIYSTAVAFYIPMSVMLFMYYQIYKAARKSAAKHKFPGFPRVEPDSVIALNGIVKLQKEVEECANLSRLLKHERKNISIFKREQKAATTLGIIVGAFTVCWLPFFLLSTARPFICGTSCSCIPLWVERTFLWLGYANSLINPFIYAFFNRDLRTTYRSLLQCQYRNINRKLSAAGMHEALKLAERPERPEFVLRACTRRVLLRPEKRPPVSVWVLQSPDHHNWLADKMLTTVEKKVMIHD
Experimental: as §1

human 5-HT2B receptor = target: T7, human 5-HT2B receptor (Homo sapiens, UniProt P41595); assay: Radioligand binding assay, 5-HT2B receptor; conditions: radioligand displacement, transfected HEK-293 cells; read-out: Receptor binding affinity (Ki), 5-HT2B
T7 construct: expressed in transfected cells; host or cells: HEK-293
T7 sequence (P41595 whole entry): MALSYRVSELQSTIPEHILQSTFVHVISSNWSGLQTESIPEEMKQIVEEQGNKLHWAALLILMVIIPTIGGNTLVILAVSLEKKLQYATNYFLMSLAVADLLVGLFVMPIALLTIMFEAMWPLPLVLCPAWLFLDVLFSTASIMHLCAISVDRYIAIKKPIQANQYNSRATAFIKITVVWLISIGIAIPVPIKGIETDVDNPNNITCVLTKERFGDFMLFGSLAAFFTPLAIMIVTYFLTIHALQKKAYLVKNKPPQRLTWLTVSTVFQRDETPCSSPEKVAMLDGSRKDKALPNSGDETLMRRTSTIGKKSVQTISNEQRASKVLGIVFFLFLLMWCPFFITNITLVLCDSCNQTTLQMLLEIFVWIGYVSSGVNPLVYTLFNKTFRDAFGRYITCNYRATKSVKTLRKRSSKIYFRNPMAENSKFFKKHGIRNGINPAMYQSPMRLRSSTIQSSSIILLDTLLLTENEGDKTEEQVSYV
Experimental: as §1

[6] = Body weight of rats after 28 days of dosing; format: in vivo; conditions: 0.2 mg/kg for 28 days, mean ± S.E.M.
plasma prolactin = assay: Plasma prolactin levels in rats (ELISA); format: in vivo; conditions: 0.2 mg/kg for 28 days, mean ± S.E.M.
Experimental: […]. Plasma prolactin levels were assessed using a commercially available Prolactin ELISA (Mouse/Rat) purchased from GenWay, according to the manufacturer’s instructions. Plasma TC and triglyceride levels were assessed using a Roche automatic biochemical analyser Cobas c 311.

[7] = […] oral 1 h before test, MK-801 0.3 mg/kg i.p.
[8] = […] oral 1 h before test, 5-HTP 320 mg/kg i.p., 40–70 min after injection
[9] = […] oral 1 h before test, MK-801 0.2 mg/kg i.p.

N[C@@H](Cc1c[nH]c2ccc(O)cc12)C(=O)O [5-HTP, reference compound]
number of head twitches ([1]; 5-HTP 320 mg/kg i.p. with vehicle (model group)): 52.5 ± 2.57

O=C1CCc2ccc(OCCCCN3CCN(c4cccc(Cl)c4Cl)CC3)cc2N1 [Aripiprazole, reference compound]
escape latency (MK-801-treated rats [2]; […] oral for 28 days, MK-801 0.3 mg/kg i.p. day 15–28, mean ± S.E.M.): 31.83 ± 5.00 s | distance travelled [3, 7]: 1957 ± 455.1 mm | number of head twitches [1, 8]: 31.5 ± 3.12 | escape latency (MK-801-treated rats [4]; [9]): 21.71 ± 0.86 s

C[C@]12N[C@H](Cc3ccccc31)c1ccccc12 [MK-801, reference compound]
Discrimination Index (DI) [5]: 0.51 ± 0.04 | escape latency (MK-801-treated rats [2]; MK-801 0.3 mg/kg i.p. day 15–28 with vehicle (model group), mean ± S.E.M.): 25.56 ± 4.36 s | distance travelled ([3]; MK-801 0.3 mg/kg i.p. with vehicle (model group)): 4933 ± 275.6 mm | escape latency (MK-801-treated rats [4]; MK-801 0.2 mg/kg i.p. with vehicle (model group)): 35.67 ± 4.05 s

O=C1COc2ccc(OCCCCN3CCN(c4cccc(Cl)c4Cl)CC3)cc2N1 [PCC0104005]
Ki (human α1A receptor): 8.3 nM | Ki (human 5-HT2C receptor): 36 nM | Ki (human H1 receptor): 1.1 nM | Ki (human 5-HT6 receptor): 85 nM | Ki (human α1B receptor): 3.2 nM | escape latency (MK-801-treated rats [2]; 3.0 mg/kg oral for 28 days, MK-801 0.3 mg/kg i.p. day 15–28, mean ± S.E.M.): 11.45 ± 2.70 s | escape latency (MK-801-treated rats [2]; 6.0 mg/kg oral for 28 days, MK-801 0.3 mg/kg i.p. day 15–28, mean ± S.E.M.): 14.88 ± 2.95 s | forelimb catalepsy duration (longest) (mice; 2 mg/kg): 22.56 ± 2.65 s | forelimb catalepsy duration (longest) (mice; 4 mg/kg): 25.89 ± 3.59 s | forelimb catalepsy duration (longest) (mice; 8 mg/kg): 21.23 ± 2.53 s | distance travelled ([3]; 3.0 mg/kg oral 1 h before test, MK-801 0.3 mg/kg i.p.): 2646 ± 235.2 mm | distance travelled ([3]; 6.0 mg/kg oral 1 h before test, MK-801 0.3 mg/kg i.p.): 2655 ± 286.5 mm | distance travelled [3, 7]: 3284 ± 220.7 mm | distance travelled (spontaneous activity) ([3]; administered alone without MK-801, dose not stated): 1885 ± 269.7 mm | Ki (human 5-HT2A receptor): 5.1 nM | Ki (human 5-HT7 receptor): 5 nM | number of head twitches ([1]; 3.0 mg/kg oral 1 h before test, 5-HTP 320 mg/kg i.p., 40–70 min after injection): 24.86 ± 4.35 | number of head twitches ([1]; 6.0 mg/kg oral 1 h before test, 5-HTP 320 mg/kg i.p., 40–70 min after injection): 10.71 ± 4.81 | number of head twitches [1, 8]: 20.17 ± 2.70 | escape latency (MK-801-treated rats [4]; 3.0 mg/kg oral 1 h before test, MK-801 0.2 mg/kg i.p.): 18.35 ± 2.76 s | escape latency (MK-801-treated rats [4]; 6.0 mg/kg oral 1 h before test, MK-801 0.2 mg/kg i.p.): 17.45 ± 1.78 s | escape latency (MK-801-treated rats [4]; [9]): 20.60 ± 1.30 s | Ki (human 5-HT2B receptor): 0.34 nM

Cc1nc2n(c(=O)c1CCN1CCC(c3noc4cc(F)ccc34)CC1)CCCC2 [Risperidone, reference compound]
escape latency (MK-801-treated rats [2]; 0.2 mg/kg oral for 28 days, MK-801 0.3 mg/kg i.p. day 15–28, mean ± S.E.M.): 11.81 ± 3.06 s | distance travelled ([3]; 0.2 mg/kg oral 1 h before test, MK-801 0.3 mg/kg i.p.): 1886 ± 437.3 mm | number of head twitches ([1]; 0.2 mg/kg oral 1 h before test, 5-HTP 320 mg/kg i.p., 40–70 min after injection): 9 ± 1.73 | escape latency (MK-801-treated rats [4]; 0.2 mg/kg oral 1 h before test, MK-801 0.2 mg/kg i.p.): 20.71 ± 2.18 s | body weights [6]: 116.4 ± 10.51 g | plasma prolactin level (plasma prolactin): 5.67 ± 0.51 ng/mL
